The results in this text go back to patent US5593970A, “Heterocyclic anthracycline analogs” (priority 1994, dated 1997).

Assay [1] deals with tumor cell lines. Nature of the assay: Tumor clonogenic assay, overall. In kind it is cell-based. An excerpt: For the IN VITRO test, we chose a tumor clonogenic assay which measures the ability of tumoral cells to form colonies (multicellular growth units) as a result of cell division in semisolid agar support (2,3). A more elaborate version of this fundamental assay, the soft agar colony formation disk diffusion assay was used. This assay defines the relative activity of one particular drug versus a tumoral cell line type. The effect of the test drug against tumoral cells could be measured by its inhibitory capacity against colony formation after the delivery of the compound, in different concentrations on an filter disk(4).
A modified technique of this assay was used in order to investigate the antiproliferative activity of candidate compounds. Tumoral cells from solid tumors and ascitic lines were plated separately in a two layer agar matrix. Cell lines to be tested were suspended in an upper layer of 0.4% Noble agar (Difco#00142-01) in RPMI-1066 (Gibco#3201875) at a yield varying between 10^4 to 2×10^5 cells per 60 mm Petri dish. Plating efficiency was determined for each line in order to achieve an optimal number of colonies per dish. Plates were examined before drug administration to confirm a uniform dispersion of single cells. The bottom layer consisted of 0.8% Noble agar, 0.8% Tryptic Soy Broth (difco#0037001)in CMRL-1066/Fischer's. The bottom layers were used within 2 and 9 days of preparation. Plated dishes (bottom layer of agar, upper layer of cells and administered drug were incubated in humidified atmosphere at 37° C., 5% CO2 for 10-20 days depending upon the time necessary to observe adequate colonies (defined as a cell aggregate of more than 50 cells) both control and drug inhibited. Drugs were administered on a paper filter disk (Whatman No. 1) of 6.5 mm diameter placed on the upper layer at 1/3 distance from the edge of the dish. The anti-clonogenic activity of the compounds was measured as the zone of inhibition from the disk edge to the most proximal colonies. This zone of inhibition was checked on an inverted microscope (40×) and was measured with a micrometer mounted in the eyepiece. The ocular micrometer was calibrated with a stage micrometer set for a particular combination of ocular and objective lenses.
200 units of activity are equivalent to 6.5 mm distance from the disk edge to the first colonies (5). […] We made a modification of the initial technique by not plating a solid tumor and a leukemia simultaneously in the same Petri dish. Anti-clonogenic tests performed on leukemia cell line have helped in the discovery of the majority of current clinically used cytostatic drugs. Our tests on solid tumor lines (animal or human) may help define active compounds with solid tumor specificity. This specific activity would be indicated by a higher level of cloning inhibition in solid tumors versus leukemias (6).

Assay [2] has as its system BE-1. Nature of the assay: Soft agar colony formation disk diffusion assay. Type of assay: cell-based, human. Summed up: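 Two-layer agar; upper 0.4% Noble agar/RPMI-1066 with cells, lower 0.8% agar + 0.8% Tryptic Soy Broth. Drug on 6.5 mm filter disk; 37 °C, 5% CO2, 10–20 d. Inhibition zone (disk edge to closest colony) read at 40× with eyepiece micrometer.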
Background: In agar diffusion tests the substance spreads into inoculated agar from a disc or well.

Assay [3] relates to Leukemia. Nature of the assay: NCI assay, average per cancer type. The settings on record: for CC50: 48 h, read-out: Average LOG10 LC50; for GI50: read-out: Average LOG10 GI50.
The subject of assay [4] is CNS. Nature of the assay: NCI assay, average per cancer type. The settings on record: Homo sapiens; for CC50: 48 h, read-out: Average LOG10 LC50; for GI50: read-out: Average LOG10 GI50.
For assay [5], the system named is Melanoma. Nature of the assay: NCI assay, average per cancer type. The settings on record: Homo sapiens; for CC50: 48 h, read-out: Average LOG10 LC50; for GI50: read-out: Average LOG10 GI50.
The test system of assay [6] is Ovarian. Nature of the assay: NCI assay, average per cancer type. To be noted: Homo sapiens; for CC50: 48 h, read-out: Average LOG10 LC50; for GI50: read-out: Average LOG10 GI50.

Entries after “also recorded” stand apart in the source; their conditions may differ. Structures can show the parent of a compound that is named as a salt. Where two headings read alike, the source gives them in different places.

As for “3-(2-acetoxy-1-propeneketal)aceto-6-acetoxy-1-hydroxy-1,2,3,4-tetrahydro-(2-oxygen)naphtacene-5,12-dione and 3-(2-acetoxy-1-propeneketal)-aceto-11-acetoxy-1-hydroxy-1,2,3,4-tetrahydro-(2-oxygen)naphtacene-5,12-dione [BCH-710]”, the “activity and specificity in words” value in assay [1] was “most active”; in assay [1] (listed as BCH 710) it was “specificity for the MATB/ADR rat breast ADR resistant adenocarcinoma and mouse ovarian reticulum cell sarcoma”.

In the case of “3-(2-hydroxy)aceto-6-hydroxy-1,2,3,4-tetrahydro-(2-oxygen)naphthacene-5,12-dione and 3-(2-hydroxy)aceto-11-hydroxy-1,2,3,4-tetrahydro-(2-oxygen)naphthacene-5,12-dione [BCH-694]”, the zone of inhibition in assay [2] (10 μg/DISK) turned out to be 54.9 ± 8.6 Zone Units; in assay [2] (100 μg/DISK) it was 189.0 ± 8.4 Zone Units.

As to “3-carbomethoxy-6-hydroxy-1,2,3,4-tetrahydro-(2-sulfur)naphthacene-5,12-dione and 3-carbomethoxy-11-hydroxy-1,2,3,4-tetrahydro(2-sulfur)naphthacene-5,12-dione [BCH-693]”, the zone of inhibition in assay [2] (10 μg/DISK) came out at 0 Zone Units; in assay [2] (100 μg/DISK), 76.2 ± 21.5 Zone Units.

Usually GI50 stands for the concentration giving 50% growth inhibition. As for `CCOC(=O)[C@@H]1CC2=C(C(=O)c3c(c(O)c4ccccc4c3OC(C)=O)C2=O)[C@@H](O)O1` (mixture of isomers) [BCH-658, (1S,3S) and (1R,3R) Ethyl[11-acetoxy-1,6-dihydroxy-5,12-dioxo-3,4,5,12-tetrahydroanthraceno (2,3-c)pyran-3-yl]formate], the CC50 in assay [3], in assay [4], in assay [5] and in assay [6] was greater than 100 µM each time. The 50% growth inhibitory concentration (GI50) in assay [3] is greater than 100 µM; in assay [4], 46.8 µM; in assay [5], greater than 100 µM; in assay [6] it was greater than 100 µM. For the same compound, the zone of inhibition in assay [2] (10 μg/DISK) and in assay [2] (100 μg/DISK) was 0 Zone Units each time.

On to `CCOC(=O)[C@@H]1CC2=C(C(=O)c3cc4ccccc4c(OC(C)=O)c3C2=O)[C@@H](O)O1` (mixture of isomers) [BCH-660, (1S,3S) and (1R,3R)-Ethyl-[6-acetoxy-1-hydroxy-5,12-dioxo-3,4,5,12-tetrahydroanthraceno (2,3-c)pyran-3-yl]formate], for which the CC50 in assay [3] was greater than 100 µM; in assay [4] it was 15.8 µM; in assay [5] it was 10.5 µM; in assay [6], 6.61 µM. The GI50 was 0.316 µM in assay [3], 0.955 µM in assay [4], 0.955 µM in assay [5] and 0.955 µM in assay [6]. The zone of inhibition in assay [2] (10 μg/DISK) was 45.7 ± 21.5 Zone Units; in assay [2] (100 μg/DISK) it was 125.0 ± 12.7 Zone Units.

Take `COC(=O)[C@@H]1CC2=C(C(=O)c3c(c(OC)c4ccccc4c3O)C2=O)[C@@H](O[C@H]2C[C@H](NC(=O)C(F)(F)F)[C@H](O)[C@H](C)O2)O1` (mixture of isomers) [BCH-674, (1'S,1S,3R) and 1'S,1R,3S) Methyl(11-hydroxy-6-methoxy-1-[2',3',6'-trideoxy-3-trifluoroacetamido-4'-hydroxy-L-lyxohexopyranose]-5,12-dioxo-3,4,5,12-tetrahydroanthra-ceno[2,3-c]pyran-3-yl) formate]: the CC50 in assay [3] was greater than 100 µM; in assay [4], 63.1 µM; in assay [5] it was 89.1 µM; in assay [6] it was 83.2 µM. The GI50 in assay [3] was 8.71 µM; in assay [4] it was 13.8 µM; in assay [5], 13.2 µM; in assay [6] it was 15.8 µM.

On to `COC(=O)[C@H]1CC2=C(C(=O)c3c(c(OC)c4ccccc4c3O)C2=O)[C@H](O[C@H]2C[C@H](NC(=O)C(F)(F)F)[C@H](O)[C@H](C)O2)O1` (mixture of isomers) [BCH-675, (1'S,1S,3R) and 1'S,1R,3S) Methyl(11-hydroxy-6-methoxy-1-[2',3',6'-trideoxy-3-trifluoroacetamido-4'-hydroxy-L-lyxohexopyranose]-5,12-dioxo-3,4,5,12-tetrahydroanthra-ceno[2,3-c]pyran-3-yl) formate], for which the CC50 in assay [3] is greater than 100 µM; in assay [4] it was 61.7 µM; in assay [5], 79.4 µM; in assay [6], 63.1 µM. The GI50 in assay [3] was 2.95 µM; in assay [4], 10.7 µM; in assay [5], 5.89 µM; in assay [6], 8.51 µM. For the same compound, the zone of inhibition in assay [2] (10 μg/DISK) came out at 0 Zone Units; in assay [2] (100 μg/DISK) it was 46.7 ± 5.3 Zone Units.

Regarding `CCOC(=O)C1CC2=C(CO1)C(=O)c1c(cc3ccccc3c1O)C2=O` (stereo not drawn) [BCH-651, Ethyl(6 and 11 hydroxy-5,12-dioxo-3,4,5,12-tetrahydro-anthraceno[2,3-c]pyran-3-yl)]formate], the CC50 in assay [3] is greater than 100 µM; in assay [4] it was 64.6 µM; in assay [5], 34.7 µM; in assay [6], 46.8 µM. In addition, the 50% growth inhibitory concentration (GI50) was 3.31 µM in assay [3], 10 µM in assay [4], 2.75 µM in assay [5] and 5.89 µM in assay [6]. Also, the zone of inhibition worked out at 0 Zone Units in assay [2] (10 μg/DISK) and 106.7 ± 21.5 Zone Units in assay [2] (100 μg/DISK).

As to `CCOC(=O)C1CC2=C(CO1)C(=O)c1cc3ccccc3c(O)c1C2=O` (stereo not drawn) [BCH-653, Ethyl(6 and 11 hydroxy-5,12-dioxo-3,4,5,12-tetrahydro-anthraceno[2,3-c]pyran-3-yl)]formate], the CC50 in assay [3], in assay [4], in assay [5] and in assay [6] was greater than 100 µM in each case. Moreover, the GI50 in assay [3] is 15.8 µM; in assay [4] it was 50.1 µM; in assay [5], 33.1 µM; in assay [6], 38 µM. In addition, in assay [2] (100 μg/DISK), the zone of inhibition is on record as 76.2 ± 21.5 Zone Units.

For the compound `CCOC(=O)C1CC2=C(CO1)C(=O)c1c(c(O)c3ccccc3c1OC(C)=O)C2=O` (stereo not drawn) [BCH-654, Ethyl[11-acetoxy-6-hydroxy-5,12-dioxo-3,4,5,12-tetrahydroanthraceno(2,3-c)pyran-3-yl]formate], the zone of inhibition in assay [2] (10 μg/DISK) is reported as 24.4 ± 8.6 Zone Units; in assay [2] (100 μg/DISK), 153.0 ± 1.4 Zone Units.

`CCOC(=O)[C@@H]1CC2=C(C(=O)c3cc4ccccc4c(O)c3C2=O)[C@@H](O[C@H]2C[C@H](NC(=O)C(F)(F)F)[C@H](O)[C@H](C)O2)O1` [BCH-681, (1'S,1R,3S)Ethyl[6-hydroxy-5,12-dioxo-1-(3'-trifuloroacetamido-1-daunosaminyl)-3,4,5,12-tetrahydroanthraceno(2,3-C)pyran-3-yl]formate]: the CC50 is less than 100 µM in assay [3], 22.4 µM in assay [4], 5.01 µM in assay [5] and 16.6 µM in assay [6]. Moreover, the GI50 in assay [3] is 2.04 µM; in assay [4], 2.88 µM; in assay [5], 1.12 µM; in assay [6], 2.69 µM.

`CCOC(=O)[C@H]1CC2=C(C(=O)c3cc4ccccc4c(O)c3C2=O)[C@H](O[C@H]2C[C@H](NC(=O)C(F)(F)F)[C@H](O)[C@H](C)O2)O1` [BCH-684, (1'S,1S,3R)Ethyl[6-hydroxy-5,12-dioxo-1-(3'-trifluoroacetamido-1-daunosaminyl)-3,4,5,12-tetrahydroanthraceno(2,3-C)pyran-3-yl]formate]: in assay [1], the “activity and specificity in words” value is recorded as “most active; also recorded: Good broad spectrum activity”.

As to `CC(=O)Oc1c2c(c(O)c3ccccc13)C(=O)C1=C(C2=O)C(O)OC(C(C)=O)C1` (stereo not drawn) [BCH-704, Methyl(11-acetoxy-1,6-dihydroxy-5,12-dioxo-3,4,5,12-tetrahydroanthraceno[2,3-c]pyran-3-yl)ketone], the “activity and specificity in words” value in assay [1] is given as “most active; also recorded: Specificity for breast cancer”.
